Measured values published in patent US10227323B2, “Glucosylceramide synthase inhibitors for the treatment of diseases” (BIOMARIN PHARMACEUTICAL INC., priority 2013, dated 2019).

biological target: T1, GCS (Canis lupus familiaris, UniProt A0A8I3MXG6); test: Assay 1: GCS Enzymatic Assay (MDCK cell lysate, C6-NBD-Ceramide, LC/MS); format: biochemical, canine; conditions: Table 2; data without asterisk; read-out: IC50 (nM) generated from Assay 1
T1 sequence (A0A8I3MXG6 1-394): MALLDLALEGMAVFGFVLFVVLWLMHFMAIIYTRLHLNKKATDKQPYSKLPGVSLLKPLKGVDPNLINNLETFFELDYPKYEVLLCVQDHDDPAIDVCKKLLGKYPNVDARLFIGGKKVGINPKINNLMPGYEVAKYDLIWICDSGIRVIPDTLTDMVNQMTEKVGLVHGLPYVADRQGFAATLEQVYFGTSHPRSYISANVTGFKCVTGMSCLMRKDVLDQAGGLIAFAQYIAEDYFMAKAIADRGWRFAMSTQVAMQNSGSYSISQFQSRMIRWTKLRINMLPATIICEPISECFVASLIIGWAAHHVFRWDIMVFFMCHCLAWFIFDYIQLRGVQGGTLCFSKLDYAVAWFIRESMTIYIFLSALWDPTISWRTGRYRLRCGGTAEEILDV
In short: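 LC/MS/MS measurement of glucosylceramide and NBD-ceramide after a 1 h, 37 °C reaction with 100 μM UDP-glucose and 10 μM C6-NBD-ceramide gave IC50s or percent inhibition.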

| IC50 | Structure (SMILES) |
| --- | --- |
| < 50 nM | O=C(N[C@H](CN1CCCC1)[C@H](O)c1cc(F)c2c(c1)OCCO2)C(=O)c1ccc(-c2ccc3oncc3c2)cc1 [Example 290, 2-(4-(benzo[d]isoxazol-5-yl)phenyl)-N-((1R,2R)-1-(8-fluoro-2,3-dihydrobenzo[b][1,4]dioxin-6-yl)-1-hydroxy-3-(pyrrolidin-1-yl)propan-2-yl)-2-oxoacetamide] |
| < 50 nM | O=C(N[C@H](CN1CCCC1)[C@H](O)c1ccc(OC2CC2)c(F)c1)C(=O)c1cc2ccc(Cl)cc2s1 [Example 292, 2-(6-chlorobenzo[b]thiophen-2-yl)-N-((1R,2R)-1-(4-cyclopropoxy-3-fluorophenyl)-1-hydroxy-3-(pyrrolidin-1-yl)propan-2-yl)-2-oxoacetamide] |
| < 50 nM | CC(C)(C)c1ccc(-c2ccc(C(=O)C(=O)N[C@H](CN3CCC3)[C@H](O)c3cc(F)c4c(c3)OCCO4)cc2)cc1 [Example 293, N-((1R,2R)-3-(azetidin-1-yl)-1-(8-fluoro-2,3-dihydrobenzo[b][1,4]dioxin-6-yl)-1-hydroxypropan-2-yl)-2-(4′-(tert-butyl)-[1,1′-biphenyl]-4-yl)-2-oxoacetamide] |
| < 50 nM | CC(C)(C)c1ccc(-c2ccc(C(=O)C(=O)N[C@H](CN3CCCC3)[C@H](O)c3cc(F)c4c(c3)OCCO4)cc2)cc1 [Example 294, 2-(4′-(tert-butyl)-[1,1′-biphenyl]-4-yl)-N-((1R,2R)-1-(8-fluoro-2,3-dihydrobenzo[b][1,4]dioxin-6-yl)-1-hydroxy-3-(pyrrolidin-1-yl)propan-2-yl)-2-oxoacetamide] |
| 50 to 5000 nM | Cc1cc(F)ccc1-c1ccc(C(=O)C(=O)N[C@H](CN2CCCC2)[C@H](O)c2ccc(OC3CC3)c(Cl)c2)cc1 [Example 295, N-((1R,2R)-1-(3-chloro-4-cyclopropoxyphenyl)-1-hydroxy-3-(pyrrolidin-1-yl)propan-2-yl)-2-(4′-fluoro-2′-methyl-[1,1′-biphenyl]-4-yl)-2-oxoacetamide] |
| < 50 nM | O=C(N[C@H](CN1CCCC1)[C@H](O)c1ccc(OC2CC2)c(Cl)c1)C(=O)c1ccc(-c2ccc3scnc3c2)cc1 [Example 296, 2-(4-(benzo[d]thiazol-5-yl)phenyl)-N-((1R,2R)-1-(3-chloro-4-cyclopropoxyphenyl)-1-hydroxy-3-(pyrrolidin-1-yl)propan-2-yl)-2-oxoacetamide] |
| < 50 nM | O=C(N[C@H](CN1CCCC1)[C@H](O)c1ccc(OC2CC2)c(Cl)c1)C(=O)c1ccc(-c2ccc3ncsc3c2)cc1 [Example 297, 2-(4-(benzo[d]thiazol-6-yl)phenyl)-N-((1R,2R)-1-(3-chloro-4-cyclopropoxyphenyl)-1-hydroxy-3-(pyrrolidin-1-yl)propan-2-yl)-2-oxoacetamide] |
| < 50 nM | Cc1cc(C(=O)C(=O)N[C@H](CN2CCCC2)[C@H](O)c2ccc(OC3CC3)c(Cl)c2)ccc1-c1ccc(F)cc1 [Example 298, N-((1R,2R)-1-(3-chloro-4-cyclopropoxyphenyl)-1-hydroxy-3-(pyrrolidin-1-yl)propan-2-yl)-2-(4′-fluoro-2-methyl-[1,1′-biphenyl]-4-yl)-2-oxoacetamide] |
| < 50 nM | Cc1cc(C(=O)C(=O)N[C@H](CN2CCCC2)[C@H](O)c2cc(F)c3c(c2)OCCO3)ccc1-c1ccc(F)cc1 [Example 299, N-((1R,2R)-1-(8-fluoro-2,3-dihydrobenzo[b][1,4]dioxin-6-yl)-1-hydroxy-3-(pyrrolidin-1-yl)propan-2-yl)-2-(4′-fluoro-2-methyl-[1,1′-biphenyl]-4-yl)-2-oxoacetamide] |
| < 50 nM | O=C(N[C@H](CN1CCC1)[C@H](O)c1cc(Cl)c2c(c1)OCCO2)C(=O)c1ccc(-c2ccc(F)cc2)cc1 [Example 300, N-((1R,2R)-3-(azetidin-1-yl)-1-(8-chloro-2,3-dihydrobenzo[b][1,4]dioxin-6-yl)-1-hydroxypropan-2-yl)-2-(4′-fluoro-[1,1′-biphenyl]-4-yl)-2-oxoacetamide] |
| < 50 nM | N#Cc1ccc(-c2ccc(C(=O)C(=O)N[C@H](CN3CCCC3)[C@H](O)c3ccc(OC4CC4)c(Cl)c3)cc2)cc1 [Example 301, N-((1R,2R)-1-(3-chloro-4-cyclopropoxyphenyl)-1-hydroxy-3-(pyrrolidin-1-yl)propan-2-yl)-2-(4′-cyano-[1,1′-biphenyl]-4-yl)-2-oxoacetamide] |
| < 50 nM | O=C(N[C@H](CN1CCCC1)[C@H](O)c1ccc(OC2CC2)c(Cl)c1)C(=O)c1ccc2oc3ccc(Br)cc3c2c1 [Example 302, 2-(8-bromodibenzo[b,d]furan-2-yl)-N-((1R,2R)-1-(3-chloro-4-cyclopropoxyphenyl)-1-hydroxy-3-(pyrrolidin-1-yl)propan-2-yl)-2-oxoacetamide] |
| < 50 nM | [2H]C([2H])(C(=O)N[C@H](CN1CCCC1)[C@H](O)c1ccc(OC2CC2)c(Cl)c1)c1ccc(-c2ccc(F)cc2)cc1 [Example 303, N-[(1R,2R)-2-(3-chloro-4-cyclopropoxyphenyl)-2-hydroxy-1-(pyrrolidinylmethyl)ethyl]-2-[4-(4-fluorophenyl)phenyl]acetamide] |
| < 50 nM | O=C(N[C@H](CN1CCCC1)[C@H](O)c1ccc(OC2CC2)c(Cl)c1)C(=O)c1ccc2nn(Cc3ccc(F)cc3)cc2c1 [Example 304, N-((1R,2R)-1-(3-chloro-4-cyclopropoxyphenyl)-1-hydroxy-3-(pyrrolidin-1-yl)propan-2-yl)-2-(2-(4-fluorobenzyl)-2H-indazol-5-yl)-2-oxoacetamide] |
| < 50 nM | O=C(N[C@H](CN1CCCC1)[C@H](O)c1cc(F)c2c(c1)OCCO2)C(=O)c1ccc2nn(Cc3ccc(F)cc3)cc2c1 [Example 305, N-((1R,2R)-1-(8-fluoro-2,3-dihydrobenzo[b][1,4]dioxin-6-yl)-1-hydroxy-3-(pyrrolidin-1-yl)propan-2-yl)-2-(2-(4-fluorobenzyl)-2H-indazol-5-yl)-2-oxoacetamide] |
| < 50 nM | CC(C)n1ncc2ccc(C(=O)C(=O)N[C@H](CN3CCCC3)[C@H](O)c3ccc(OC4CC4)c(Cl)c3)cc21 [Example 306, N-((1R,2R)-1-(3-chloro-4-cyclopropoxyphenyl)-1-hydroxy-3-(pyrrolidin-1-yl)propan-2-yl)-2-(1-isopropyl-1H-indazol-6-yl)-2-oxoacetamide] |
| < 50 nM | CC(C)n1ncc2ccc(C(=O)C(=O)N[C@H](CN3CCCC3)[C@H](O)c3cc(F)c4c(c3)OCCO4)cc21 [Example 307, N-((1R,2R)-1-(8-fluoro-2,3-dihydrobenzo[b][1,4]dioxin-6-yl)-1-hydroxy-3-(pyrrolidin-1-yl)propan-2-yl)-2-(1-isopropyl-1H-indazol-6-yl)-2-oxoacetamide] |
| < 50 nM | O=C(N[C@H](CN1CCCC1)[C@H](O)c1cc(F)c2c(c1)OCCO2)C(=O)c1cc2ccc(Cl)cc2s1 [Example 308, 2-(6-chlorobenzo[b]thiophen-2-yl)-N-((1R,2R)-1-(8-fluoro-2,3-dihydrobenzo[b][1,4]dioxin-6-yl)-1-hydroxy-3-(pyrrolidin-1-yl)propan-2-yl)-2-oxoacetamide] |

| Structure (SMILES) | IC50 |
| --- | --- |
| CC(C)(C)Oc1ccc([C@@H](O)[C@@H](CN2CCCC2)NC(=O)C(=O)c2ccc(-c3ccc(F)cc3)cc2)cc1Cl [Example 291, N-((1R,2R)-1-(4-(tert-butoxy)-3-chlorophenyl)-1-hydroxy-3-(pyrrolidin-1-yl)propan-2-yl)-2-(4′-fluoro-[1,1′-biphenyl]-4-yl)-2-oxoacetamide] | 50 to 5000 nM |
